Series [1] is described as follows: Solubility of the compound in phosphate buffered saline. In kind it is physicochemical.
Series [2] is described as follows: Solubility of the compound in 0.1N HCl. In kind it is physicochemical.
A short description of series [3]: Solubility of the compound in simulated intestinal fluid. In kind it is physicochemical.
The nature of series [4]: Intrinsic clearance in mouse liver microsomes. In kind it is ADME, Microsome. The following applies: read-out: CLH. (In general: Liver microsomes are a subcellular fraction often used to study metabolism.)
Series [5] concerns the target Platelet-derived growth factor receptor beta (Homo sapiens) (UniProt P09619). As to the kind of experiment: Inhibition of PDGFRB assessed as remaining activity at 1 uM relative to control.
The nature of series [6]: Volume of distribution at steady state in Sprague-Dawley rat at 0.25 mg/kg, iv. In kind it is ADME, organism-based. The arrangement: dose 0.25 mg/kg, route intravenous. The following applies: in vivo, read-out: Vdss.
Series [7] is described as follows: Plasma protein binding in mouse by equilibrium dialysis. In kind it is ADME, cell-free. To be noted: read-out: PPB (converted).
Series [8] can be described thus: Plasma protein binding in human by equilibrium dialysis. In kind it is ADME, cell-free. The following applies: read-out: PPB (converted). A general note: In equilibrium dialysis free small molecules cross a membrane that holds back macromolecules.
Series [9] concerns the target Mast/stem cell growth factor receptor Kit (Homo sapiens) (UniProt P10721). Description: Inhibition of KIT assessed as remaining activity at 1 uM relative to control.
For a further series, the system named is Plasma. Description: Plasma concentration in BALB/c mouse at 10 mg/kg, po. In kind it is ADME, organism-based. The arrangement: dose 10 mg/kg, route oral. To be noted: in vivo.
A short description of series [10]: Intrinsic clearance in rat liver microsomes. In kind it is ADME, Microsome. To be noted: read-out: CLH.
The target in series [11] is Vascular endothelial growth factor receptor 2 (Homo sapiens) (UniProt P35968). As to the kind of experiment: Inhibition of VEGFR2 assessed as remaining activity at 1 uM relative to control.
The nature of series [12]: Plasma protein binding in rat by equilibrium dialysis. In kind it is ADME, cell-free. The following applies: read-out: PPB (converted).
Series [13] in a line: Clearance in Sprague-Dawley rat at 0.25 mg/kg, iv. The following applies: in vivo. The arrangement: dose 0.25 mg/kg, route intravenous. In kind it is ADME, organism-based.
The nature of series [14]: Half life in Sprague-Dawley rat at 0.25 mg/kg, iv. In kind it is ADME, organism-based. To be noted: in vivo. The arrangement: dose 0.25 mg/kg, route intravenous.
Series [15] in a line: Intrinsic clearance in human liver microsomes. In kind it is ADME, Microsome. The following applies: read-out: CLH.
A further series has as its system Mus musculus. Description: Inhibition of HGF-induced phosphorylation of c-Met in BALB/c mice mouse liver at 10 mg/kg, po administered 1 to 24 hrs before HGF-induction measured after 5 mins. In kind it is functional.
A short description of series [16]: AUC (0 to infinity) in Sprague-Dawley rat at 2 mg/kg, po. In kind it is ADME, organism-based. The arrangement: time infinity, dose 2 mg/kg, route oral. To be noted: plasma.
Series [17] in a line: Oral bioavailability in Sprague-Dawley rat at 2 mg/kg. The following applies: in vivo. In kind it is ADME, organism-based.

Each structure is given as a SMILES string. Converted amounts (≈) assume the structure as drawn.

Chain of Platelet-derived growth factor receptor beta (Homo sapiens) (P09619 whole entry): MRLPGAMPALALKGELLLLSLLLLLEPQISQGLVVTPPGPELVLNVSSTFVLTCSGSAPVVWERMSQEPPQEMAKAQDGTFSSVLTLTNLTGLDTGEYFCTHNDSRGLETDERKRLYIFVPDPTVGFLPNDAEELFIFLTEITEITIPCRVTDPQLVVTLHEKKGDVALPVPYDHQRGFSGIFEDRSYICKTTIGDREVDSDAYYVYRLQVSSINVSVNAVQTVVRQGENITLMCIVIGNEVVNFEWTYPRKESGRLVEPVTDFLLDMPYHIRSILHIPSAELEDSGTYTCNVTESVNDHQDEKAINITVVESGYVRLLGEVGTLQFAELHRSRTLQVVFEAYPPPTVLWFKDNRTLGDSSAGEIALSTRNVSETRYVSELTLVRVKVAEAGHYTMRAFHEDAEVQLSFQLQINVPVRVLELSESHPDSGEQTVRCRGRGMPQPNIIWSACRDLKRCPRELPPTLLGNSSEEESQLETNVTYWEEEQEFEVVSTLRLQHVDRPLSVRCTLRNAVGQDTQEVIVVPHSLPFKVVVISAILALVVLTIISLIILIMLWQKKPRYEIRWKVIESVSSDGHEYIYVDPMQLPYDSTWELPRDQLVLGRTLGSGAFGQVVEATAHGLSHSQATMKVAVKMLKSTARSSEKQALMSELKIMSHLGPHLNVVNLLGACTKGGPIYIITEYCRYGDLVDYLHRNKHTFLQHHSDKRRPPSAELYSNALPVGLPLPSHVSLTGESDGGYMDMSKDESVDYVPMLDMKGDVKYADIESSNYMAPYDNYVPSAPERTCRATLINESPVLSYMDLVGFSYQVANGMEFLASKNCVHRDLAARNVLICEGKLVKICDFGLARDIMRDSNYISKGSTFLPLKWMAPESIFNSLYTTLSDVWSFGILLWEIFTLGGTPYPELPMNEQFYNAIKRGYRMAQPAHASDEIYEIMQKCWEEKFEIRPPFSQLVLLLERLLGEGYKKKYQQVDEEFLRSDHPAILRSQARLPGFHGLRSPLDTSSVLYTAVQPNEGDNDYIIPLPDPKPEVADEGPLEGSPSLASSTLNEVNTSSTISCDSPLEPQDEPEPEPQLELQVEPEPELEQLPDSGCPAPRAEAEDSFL
Chain of Vascular endothelial growth factor receptor 2 (Homo sapiens) (P35968 whole entry): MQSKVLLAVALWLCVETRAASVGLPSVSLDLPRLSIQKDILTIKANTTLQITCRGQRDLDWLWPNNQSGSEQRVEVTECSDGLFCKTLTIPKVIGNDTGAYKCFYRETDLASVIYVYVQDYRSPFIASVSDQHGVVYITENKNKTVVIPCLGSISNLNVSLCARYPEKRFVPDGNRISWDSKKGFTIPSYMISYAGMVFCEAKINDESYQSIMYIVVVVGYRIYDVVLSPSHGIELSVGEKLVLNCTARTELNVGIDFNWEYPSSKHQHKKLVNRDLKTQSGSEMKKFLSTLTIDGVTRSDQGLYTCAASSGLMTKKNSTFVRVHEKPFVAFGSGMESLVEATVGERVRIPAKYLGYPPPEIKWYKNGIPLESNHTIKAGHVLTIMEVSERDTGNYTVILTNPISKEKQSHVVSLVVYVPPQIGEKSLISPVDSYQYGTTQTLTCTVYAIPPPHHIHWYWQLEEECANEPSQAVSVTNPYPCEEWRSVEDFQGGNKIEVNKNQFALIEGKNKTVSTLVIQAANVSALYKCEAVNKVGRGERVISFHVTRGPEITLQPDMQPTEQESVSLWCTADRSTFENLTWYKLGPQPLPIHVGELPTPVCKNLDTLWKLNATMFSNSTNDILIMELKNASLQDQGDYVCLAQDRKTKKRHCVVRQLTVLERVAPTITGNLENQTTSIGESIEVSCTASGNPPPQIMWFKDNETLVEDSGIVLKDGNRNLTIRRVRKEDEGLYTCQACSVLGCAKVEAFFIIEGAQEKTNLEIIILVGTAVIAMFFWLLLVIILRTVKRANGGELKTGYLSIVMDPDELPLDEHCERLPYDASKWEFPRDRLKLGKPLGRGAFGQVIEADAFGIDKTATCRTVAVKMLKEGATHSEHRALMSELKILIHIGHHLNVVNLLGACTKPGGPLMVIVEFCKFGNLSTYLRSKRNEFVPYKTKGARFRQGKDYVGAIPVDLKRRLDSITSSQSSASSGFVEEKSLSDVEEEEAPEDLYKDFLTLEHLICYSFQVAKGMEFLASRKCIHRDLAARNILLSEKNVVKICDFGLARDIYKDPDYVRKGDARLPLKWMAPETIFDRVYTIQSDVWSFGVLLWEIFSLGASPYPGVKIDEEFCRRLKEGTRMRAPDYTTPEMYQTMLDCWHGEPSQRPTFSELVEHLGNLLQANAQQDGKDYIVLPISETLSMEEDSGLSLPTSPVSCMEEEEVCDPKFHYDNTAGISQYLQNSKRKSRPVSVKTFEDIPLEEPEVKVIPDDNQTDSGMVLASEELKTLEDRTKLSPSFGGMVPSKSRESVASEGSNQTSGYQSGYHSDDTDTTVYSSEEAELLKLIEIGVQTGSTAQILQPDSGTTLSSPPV
Chain of Mast/stem cell growth factor receptor Kit (Homo sapiens) (P10721 whole entry): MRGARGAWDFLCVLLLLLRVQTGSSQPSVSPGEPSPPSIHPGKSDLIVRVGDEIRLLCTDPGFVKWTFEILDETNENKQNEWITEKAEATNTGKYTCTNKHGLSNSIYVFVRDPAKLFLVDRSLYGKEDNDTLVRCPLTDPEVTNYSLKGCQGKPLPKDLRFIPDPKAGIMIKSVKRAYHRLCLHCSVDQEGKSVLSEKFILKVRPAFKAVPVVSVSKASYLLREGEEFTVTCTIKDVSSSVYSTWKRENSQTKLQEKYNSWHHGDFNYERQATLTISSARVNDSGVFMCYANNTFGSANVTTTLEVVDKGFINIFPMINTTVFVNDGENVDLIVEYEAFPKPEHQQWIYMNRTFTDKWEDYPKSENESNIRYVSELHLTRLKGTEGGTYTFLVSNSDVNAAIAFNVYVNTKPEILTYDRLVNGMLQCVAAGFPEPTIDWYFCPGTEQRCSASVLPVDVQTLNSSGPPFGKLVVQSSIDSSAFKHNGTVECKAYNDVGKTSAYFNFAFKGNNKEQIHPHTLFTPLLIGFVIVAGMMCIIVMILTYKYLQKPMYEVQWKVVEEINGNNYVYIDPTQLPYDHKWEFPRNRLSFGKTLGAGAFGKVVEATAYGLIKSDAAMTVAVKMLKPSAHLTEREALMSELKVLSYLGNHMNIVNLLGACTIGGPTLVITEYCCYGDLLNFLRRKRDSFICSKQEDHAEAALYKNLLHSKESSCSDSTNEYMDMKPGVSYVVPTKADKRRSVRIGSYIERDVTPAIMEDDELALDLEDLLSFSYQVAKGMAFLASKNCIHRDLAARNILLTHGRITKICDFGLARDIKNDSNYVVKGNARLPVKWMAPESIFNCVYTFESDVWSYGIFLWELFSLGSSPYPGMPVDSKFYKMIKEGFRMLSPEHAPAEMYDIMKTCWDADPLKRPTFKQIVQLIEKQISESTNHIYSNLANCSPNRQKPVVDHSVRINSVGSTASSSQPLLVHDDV

Regarding `COCCOc1cnc2ccc(Cn3nnc4ccn(-c5cc(C)ns5)c(=O)c43)cc2c1`, the solubility in series [1] was 2.5 µg/mL (≈ 5.57 µM); in series [2], 13.7 µg/mL (≈ 30.5 µM); in series [3] it was 9.8 µg/mL (≈ 21.9 µM).

For the compound `COCCOc1cnc2ccc([C@H](C)n3nnc4ccn(-c5cc(C)ns5)c(=O)c43)cc2c1`, the values for the microsomal CLint in [4], in series [10] and in [15] were 68 µL/min/mg, 89 µL/min/mg and 84 µL/min/mg, respectively. Besides, the values for the Activity in series [5], in [9] and in series [11] were 10%, 26% and 34%, respectively. In series [6], the Vd amounted to 2.53 L/kg. The fraction unbound in [7] is 0.027; in series [8], 0.012; in [12] it was 0.018. In addition, the concentration in the series on Plasma is under 200 nM. For the same compound, the clearance in [13] is 9.32 mL/min/kg. Besides, the solubility in series [1] is 8.7 µg/mL (≈ 18.8 µM); in series [2], 37 µg/mL (≈ 80 µM); in [3], 39.7 µg/mL (≈ 85.8 µM). The compound also showed a half-life in [14] of 3.4 h. Moreover, in the series on Mus musculus, the inhibition in vivo at 10 mg/kg came to 89%. The compound further came in with an area under the curve AUC(0-inf) in series [16] of 1560 ng·h/mL. Besides, in [17], the bioavailability is 43%.

On to `Cc1cc(-n2ccc3nnn([C@@H](C)c4ccc5ncccc5c4)c3c2=O)sn1`, for which the solubility in [1] was 4.5 µg/mL (≈ 11.6 µM); in [2], at least 200 µg/mL; in [3], 22.4 µg/mL (≈ 57.7 µM).

Consider `O=C1c2c(nnn2Cc2ccc3ncccc3c2)CCN1c1ccccc1`, for which the solubility was at least 200 µg/mL in [1], at least 200 µg/mL in [2] and 60.4 µg/mL (≈ 170 µM) in series [3].

With `COCCOc1cnc2ccc([C@H](C)n3nnc4ccn(-c5ccc(F)c(F)c5)c(=O)c43)cc2c1`, the values for the microsomal CLint in series [4], in series [10] and in series [15] were 98 µL/min/mg, 105 µL/min/mg and 120 µL/min/mg, respectively. The Vd in [6] turned out to be 2.38 L/kg. Moreover, the figures for the fraction unbound in series [7], in series [8] and in [12] were 0.044, 0.045 and 0.02, respectively. In addition, the clearance in [13] was 18.8 mL/min/kg. Besides, the solubility in series [1] was 11.1 µg/mL (≈ 23.2 µM); in series [2], 128 µg/mL (≈ 267 µM); in [3], 37.7 µg/mL (≈ 79 µM). Further, the half-life in [14] was 1.81 h. Also, the AUC(0-inf) in [16] came out at 638 ng·h/mL. In [17], this compound showed a bioavailability of 36%.

Take `Cc1cc(N2CCc3nnn(Cc4ccc5ncccc5c4)c3C2=O)sn1`: the results for the solubility in series [1], in series [2] and in [3] were 2.2 µg/mL (≈ 5.84 µM), 43.2 µg/mL (≈ 115 µM) and under 1 µg/mL, respectively.

As to `Cc1cc(-n2ccc3nnn(Cc4ccc5ncccc5c4)c3c2=O)sn1`, the solubility was under 1 µg/mL in series [1], 80.1 µg/mL (≈ 214 µM) in series [2] and 4.8 µg/mL (≈ 12.8 µM) in [3].

The term solubility denotes the dissolved amount per volume that the medium holds. A higher solubility goes with a readily soluble substance. A word on the clearance: it is the volume of plasma or blood freed of the substance per unit of time. What is called half-life is the time in which the quantity being followed falls by half. A lower half-life goes with rapid decline. As a reminder, the inhibition in vivo is the drop in the measured response relative to a control, in per cent. As a reminder, the AUC(0-inf) is the area under the concentration-time curve extrapolated to infinity. Higher therefore signals high exposure. By bioavailability is commonly meant the share of a dose that reaches the circulation, judged against a reference dose that is usually intravenous. Lower therefore signals little systemic uptake.
